Measurements taken from PubChem BioAssay AID1918936 (Molecular Pharmacology Branch, DTP, NCI, 2023).

Test system: 349418-098-R-PDC complex spheroid viability
Test: Anticancer human tumor 349418-098-R-PDC patient-derived lung adenocarcinoma cell line growth inhibition
Conditions: for IC50: curve of first compound; for viability, T/C: stronger effect = lower value
Outline: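 Drug combinations with the LSD1 inhibitor iadademstat tested on tumor cells co-cultured as spheroids with endothelial cells and mesenchymal stem cells. Concentrations descended in half-log increments from clinical Cmax or 10 microM.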
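Further: spheroids exposed to agents for seven days before readout.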
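Wherever viability, T/C is given: 100% = DMSO vehicle control wells.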

CCN(c1cc(-c2ccc(CN3CCOCC3)cc2)cc(C(=O)NCc2c(C)cc(C)[nH]c2=O)c1C)C1CCOCC1 + NC1CCC(NC2CC2c2ccccc2)CC1
IC50 (second compound 0.1 µM): > 3 µM
IC50 (second compound 0.316 µM): > 3 µM
IC50 (second compound 1 µM): > 3 µM
IC50 (second compound 3.16 µM): > 3 µM
IC50 (second compound 10 µM): 0.64 µM
viability, T/C (second compound 0.1 µM, first compound 0.00949 µM): 107%
viability, T/C (second compound 0.1 µM, first compound 0.03 µM): 93.5%
viability, T/C (second compound 0.1 µM, first compound 0.0949 µM): 82.9%
viability, T/C (second compound 0.1 µM, first compound 0.3 µM): 70.5%
viability, T/C (second compound 0.1 µM, first compound 0.949 µM): 59.3%
viability, T/C (second compound 0.1 µM, first compound 3 µM): 60%
viability, T/C (second compound 0.316 µM, first compound 0.00949 µM): 99.1%
viability, T/C (second compound 0.316 µM, first compound 0.03 µM): 105%
viability, T/C (second compound 0.316 µM, first compound 0.0949 µM): 90.1%
viability, T/C (second compound 0.316 µM, first compound 0.3 µM): 77.5%
viability, T/C (second compound 0.316 µM, first compound 0.949 µM): 69.3%
viability, T/C (second compound 0.316 µM, first compound 3 µM): 62.2%
viability, T/C (second compound 1 µM, first compound 0.00949 µM): 106%
viability, T/C (second compound 1 µM, first compound 0.03 µM): 88.7%
viability, T/C (second compound 1 µM, first compound 0.0949 µM): 98%
viability, T/C (second compound 1 µM, first compound 0.3 µM): 75.6%
viability, T/C (second compound 1 µM, first compound 0.949 µM): 75.3%
viability, T/C (second compound 1 µM, first compound 3 µM): 57%
viability, T/C (second compound 3.16 µM, first compound 0.00949 µM): 106%
viability, T/C (second compound 3.16 µM, first compound 0.03 µM): 87.6%
viability, T/C (second compound 3.16 µM, first compound 0.0949 µM): 81%
viability, T/C (second compound 3.16 µM, first compound 0.3 µM): 68.3%
viability, T/C (second compound 3.16 µM, first compound 0.949 µM): 55.6%
viability, T/C (second compound 3.16 µM, first compound 3 µM): 59.5%
viability, T/C (second compound 10 µM, first compound 0.00949 µM): 79%
viability, T/C (second compound 10 µM, first compound 0.03 µM): 91.2%
viability, T/C (second compound 10 µM, first compound 0.0949 µM): 64.9%
viability, T/C (second compound 10 µM, first compound 0.3 µM): 59.7%
viability, T/C (second compound 10 µM, first compound 0.949 µM): 47.4%
viability, T/C (second compound 10 µM, first compound 3 µM): 34.5%
